The values that follow come from ChEMBL document CHEMBL3865806, “3-Hydrazinoindolin-2-one derivatives: Chemical classification and investigation of their targets as anticancer agents” (Eur J Med Chem, 2016).

In series [1] the target is T1, Tyrosine-protein phosphatase non-receptor type 11 (Homo sapiens, UniProt Q06124).
T1 sequence (Q06124 whole entry): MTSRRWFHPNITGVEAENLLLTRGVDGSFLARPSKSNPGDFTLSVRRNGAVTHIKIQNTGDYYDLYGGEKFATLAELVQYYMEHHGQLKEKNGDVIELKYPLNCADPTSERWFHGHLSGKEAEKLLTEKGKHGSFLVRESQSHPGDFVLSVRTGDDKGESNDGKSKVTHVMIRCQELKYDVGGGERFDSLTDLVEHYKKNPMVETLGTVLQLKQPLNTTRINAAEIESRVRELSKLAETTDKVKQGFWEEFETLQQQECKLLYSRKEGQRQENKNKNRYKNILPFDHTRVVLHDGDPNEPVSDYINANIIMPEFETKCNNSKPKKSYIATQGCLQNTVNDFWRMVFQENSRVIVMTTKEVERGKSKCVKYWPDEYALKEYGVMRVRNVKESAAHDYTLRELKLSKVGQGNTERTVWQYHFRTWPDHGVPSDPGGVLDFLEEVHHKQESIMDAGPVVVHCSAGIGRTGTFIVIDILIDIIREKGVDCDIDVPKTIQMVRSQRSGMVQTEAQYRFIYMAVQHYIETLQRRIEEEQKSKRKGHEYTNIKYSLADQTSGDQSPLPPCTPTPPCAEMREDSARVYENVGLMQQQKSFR
Description: Inhibition of human GST-tagged Shp2 (205 to 593 residues) expressed Escherichia coli DH5alpha assessed as inhibition of PTP activity using DiFMUP as substrate measured after 30 mins by fluorescence analysis

Series [2] deals with Epidermal growth factor receptor (Homo sapiens) (UniProt P00533). Nature of the series: Inhibition of EGFR (unknown origin) at 100 uM relative to control.
Chain of Epidermal growth factor receptor (Homo sapiens) (P00533 whole entry): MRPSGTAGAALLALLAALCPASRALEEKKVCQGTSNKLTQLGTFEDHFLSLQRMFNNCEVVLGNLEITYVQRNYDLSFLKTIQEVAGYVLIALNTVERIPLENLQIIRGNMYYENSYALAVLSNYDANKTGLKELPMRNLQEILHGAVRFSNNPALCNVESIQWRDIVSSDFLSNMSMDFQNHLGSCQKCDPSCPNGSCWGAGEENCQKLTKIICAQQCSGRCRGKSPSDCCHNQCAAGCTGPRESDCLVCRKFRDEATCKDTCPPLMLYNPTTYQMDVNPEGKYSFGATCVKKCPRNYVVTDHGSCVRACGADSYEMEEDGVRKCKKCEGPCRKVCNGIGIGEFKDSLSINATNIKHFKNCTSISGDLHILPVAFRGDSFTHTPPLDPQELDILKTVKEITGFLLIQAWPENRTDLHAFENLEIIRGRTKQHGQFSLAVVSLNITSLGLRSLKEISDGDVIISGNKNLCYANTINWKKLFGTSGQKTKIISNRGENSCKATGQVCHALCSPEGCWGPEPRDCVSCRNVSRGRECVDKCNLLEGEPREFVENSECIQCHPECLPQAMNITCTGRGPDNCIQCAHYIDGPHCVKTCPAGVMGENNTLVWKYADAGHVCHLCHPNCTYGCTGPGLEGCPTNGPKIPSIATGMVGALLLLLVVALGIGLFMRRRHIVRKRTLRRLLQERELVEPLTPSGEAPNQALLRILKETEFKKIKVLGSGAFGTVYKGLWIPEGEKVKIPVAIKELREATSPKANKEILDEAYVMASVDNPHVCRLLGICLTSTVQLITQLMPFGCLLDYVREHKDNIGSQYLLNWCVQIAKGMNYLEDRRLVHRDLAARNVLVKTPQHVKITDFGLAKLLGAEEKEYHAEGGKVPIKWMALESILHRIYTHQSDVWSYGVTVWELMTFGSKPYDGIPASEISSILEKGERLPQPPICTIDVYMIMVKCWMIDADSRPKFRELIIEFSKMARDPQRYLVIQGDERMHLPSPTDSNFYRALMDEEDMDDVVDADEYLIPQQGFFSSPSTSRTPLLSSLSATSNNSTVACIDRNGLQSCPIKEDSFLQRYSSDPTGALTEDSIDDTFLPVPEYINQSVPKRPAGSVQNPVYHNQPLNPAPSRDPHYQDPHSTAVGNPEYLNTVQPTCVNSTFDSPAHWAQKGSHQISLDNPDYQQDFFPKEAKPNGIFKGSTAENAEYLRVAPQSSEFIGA
Series [3] in a line: Growth inhibition of human NCI-H522 cells measured after 48 hrs by SRB assay. The series is classed as functional. A general note: In SRB staining, fixed cells bind dye roughly in proportion to their protein.
Series [4] is described as follows: Growth inhibition of human SR cells measured after 48 hrs by SRB assay. Format: functional.
The nature of series [5]: Growth inhibition of human MDA-MB-468 cells measured after 48 hrs by SRB assay. The series is classed as functional.
A short description of series [6]: Cytotoxicity against human KBV1 cells expressing P-glycoprotein measured after 72 hrs by MTT assay. Particulars: KB-V1, 72 h. Format: functional, cell-based.
A short description of series [7]: Cytotoxicity against human KB-3-1 cells measured after 72 hrs by MTT assay. The series is classed as functional, cell-based. The settings on record: KB 3-1, 72 h. For orientation: Tetrazolium dyes change colour on reduction, which living cells bring about.
Series [8] is described as follows: Cytotoxicity against human HepG2 cells measured after 72 hrs by SRB assay. The series is classed as functional, cell-based. The settings on record: HepG2, 72 h.
Series [9] in a line: Antiproliferative activity against mouse L1210 cells. The series is classed as functional, cell-based.
For series [10], the target named is T2, Hepatocyte growth factor receptor (Homo sapiens, UniProt P08581). In words: Inhibition of GST-tagged c-Met (unknown origin) assessed as phosphotyrosine levels preincubated foe 15 mins followed by addition of poly(glutamic acid-tyrosine (4:1)) as substrate and ATP by ELISA.
T2 sequence (P08581 whole entry): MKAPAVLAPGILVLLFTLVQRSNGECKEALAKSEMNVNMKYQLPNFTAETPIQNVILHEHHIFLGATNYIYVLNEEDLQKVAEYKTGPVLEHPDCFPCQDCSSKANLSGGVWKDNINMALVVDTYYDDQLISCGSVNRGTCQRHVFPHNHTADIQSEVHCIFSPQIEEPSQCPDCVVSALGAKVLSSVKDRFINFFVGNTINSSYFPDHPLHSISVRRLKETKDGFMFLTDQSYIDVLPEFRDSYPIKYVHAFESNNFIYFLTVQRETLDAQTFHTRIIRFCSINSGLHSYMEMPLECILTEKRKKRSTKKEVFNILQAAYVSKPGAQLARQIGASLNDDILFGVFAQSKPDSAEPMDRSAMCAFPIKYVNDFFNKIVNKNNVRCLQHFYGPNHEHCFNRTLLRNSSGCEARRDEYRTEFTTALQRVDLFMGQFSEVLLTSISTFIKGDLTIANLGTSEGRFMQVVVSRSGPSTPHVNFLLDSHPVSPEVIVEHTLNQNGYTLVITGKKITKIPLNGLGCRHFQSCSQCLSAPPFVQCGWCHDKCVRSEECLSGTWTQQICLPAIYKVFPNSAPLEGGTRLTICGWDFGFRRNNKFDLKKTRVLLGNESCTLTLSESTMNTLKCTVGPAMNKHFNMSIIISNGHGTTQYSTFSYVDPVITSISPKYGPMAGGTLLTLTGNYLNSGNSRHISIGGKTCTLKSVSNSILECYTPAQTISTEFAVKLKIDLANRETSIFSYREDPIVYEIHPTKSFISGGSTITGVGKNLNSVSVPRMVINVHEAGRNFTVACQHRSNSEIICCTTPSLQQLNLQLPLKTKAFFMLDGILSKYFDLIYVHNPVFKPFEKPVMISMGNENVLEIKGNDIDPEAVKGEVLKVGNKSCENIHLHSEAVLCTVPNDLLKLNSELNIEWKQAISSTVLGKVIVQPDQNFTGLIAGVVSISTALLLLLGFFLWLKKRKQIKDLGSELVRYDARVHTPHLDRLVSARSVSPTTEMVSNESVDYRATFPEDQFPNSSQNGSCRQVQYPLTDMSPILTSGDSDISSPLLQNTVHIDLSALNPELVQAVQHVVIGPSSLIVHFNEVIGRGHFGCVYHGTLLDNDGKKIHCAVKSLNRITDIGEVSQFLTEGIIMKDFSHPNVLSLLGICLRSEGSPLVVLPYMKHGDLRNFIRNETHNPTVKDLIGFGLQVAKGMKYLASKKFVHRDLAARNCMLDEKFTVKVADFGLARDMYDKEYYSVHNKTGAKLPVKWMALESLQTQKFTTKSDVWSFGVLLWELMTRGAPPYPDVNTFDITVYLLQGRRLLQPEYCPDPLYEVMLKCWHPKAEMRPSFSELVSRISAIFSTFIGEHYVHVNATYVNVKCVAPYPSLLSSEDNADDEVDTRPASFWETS
A short description of series [11]: Cytotoxicity against human MOLT4 cells measured after 48 hrs by SRB assay. Format: functional. The settings on record: MOLT-4, 48 h.
Series [12] can be described thus: Cytotoxicity against human HL-60(TB) cells measured after 48 hrs by SRB assay. The series is classed as functional. The settings on record: HL-60, 48 h.
Series [13] can be described thus: Cytotoxicity against human HOP62 cells measured after 48 hrs by SRB assay. The series is classed as functional. The settings on record: HOP-62, 48 h.
Series [14] in a line: Cytotoxicity against human UO31 cells measured after 48 hrs by SRB assay. The series is classed as functional. Particulars: UO-31, 48 h.
Series [15] is described as follows: Cytotoxicity against human U251 cells measured after 48 hrs by SRB assay. Format: functional. The settings on record: U-251, 48 h.
The nature of series [16]: Cytotoxicity against human […] cells measured after 48 hrs by SRB assay. Format: functional. The settings on record: RXF 393, 48 h.
Series [17] deals with Glycogen synthase kinase-3 beta (Homo sapiens, UniProt P49841). Nature of the series: Inhibition of GSK-3beta (unknown origin) assessed as inhibition of phosphorylation using Ser/Thr 9 peptide as substrate by FRET-based Z-LYTE assay.
Chain of Glycogen synthase kinase-3 beta (P49841 whole entry): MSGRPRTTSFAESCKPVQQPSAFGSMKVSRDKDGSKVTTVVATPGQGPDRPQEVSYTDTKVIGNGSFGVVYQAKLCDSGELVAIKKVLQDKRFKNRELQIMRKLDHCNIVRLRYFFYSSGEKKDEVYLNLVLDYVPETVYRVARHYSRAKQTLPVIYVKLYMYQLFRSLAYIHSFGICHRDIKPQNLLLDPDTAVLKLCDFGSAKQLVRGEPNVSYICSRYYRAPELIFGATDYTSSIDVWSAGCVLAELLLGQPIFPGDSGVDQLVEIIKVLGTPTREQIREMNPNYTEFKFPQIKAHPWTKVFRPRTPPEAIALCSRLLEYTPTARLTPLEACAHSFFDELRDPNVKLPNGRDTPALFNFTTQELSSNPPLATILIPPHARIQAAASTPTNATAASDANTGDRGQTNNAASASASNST
The target in series [18] is T2, Hepatocyte growth factor receptor. In words: Inhibition of C-Met in human S114 cells assessed as inhibition of HGF-stimulated autophosphorylation preincubated for 60 mins followed by HGF-stimulation measured after 15 minsby DELFIA method. The series is classed as cell-based.
Series [19] in a line: Antiproliferative activity against human K562 cells measured after 48 hrs by WST1 assay. The settings on record: K562, 48 h. The series is classed as functional, cell-based.
Series [20] in a line: Antiproliferative activity against human MCF7 cells measured after 48 hrs by MTT assay. Format: functional, cell-based. Particulars: MCF7, 48 h.
Series [21] can be described thus: Anticancer activity against human IMR32 cells measured after 48 hrs by MTT assay. The series is classed as functional, cell-based. The settings on record: IMR-32, 48 h.
Series [22] in a line: Anticancer activity against human HeLa cells measured after 48 hrs by MTT assay. The series is classed as functional, cell-based.
The nature of series [23]: Cytotoxicity against porcine testicular cells assessed as cell death at 120 to 250 ug/ml. The settings on record: pig. The series is classed as toxicity, cell-based, Sus scrofa.
Series [24] deals with HeLa. Nature of the series: Inhibition of HDAC in human HeLa cell nuclear extract at 30 uM using Fluor de Lys as substrate measured after 10 to 15 mins by fluorimetric assay. The series is classed as cell-free.
Series [25] in a line: Antiproliferative activity against human MCF7 cells measured after 48 hrs by SRB assay. Particulars: MCF7, 48 h. The series is classed as functional, cell-based.

Usually IC50 stands for the point on the concentration scale where inhibition reaches its midpoint. `O=C1Nc2ccc(S(=O)(=O)O)cc2/C1=N/Nc1ccccc1[N+](=O)[O-]`: half-maximal inhibition in [1] (IC50) was put at 4.99 µM.

A word on the inhibition: it is the percentage by which the read-out fell short of the control. The low end stands for little suppression, the high end for strong suppression. In the case of `O=C(CN/N=C1\C(=O)Nc2ccccc21)Nc1nc2ccc(Cl)cc2s1`, the inhibition in [2] stood at 36.6%. The “growth inhibition (GI)” value is recorded as 27.5% in series [3], 26.6% in series [4] and 38.1% in series [5].

As to `O=C1Nc2ccc(OC(F)(F)F)cc2/C1=N/N=C1/C(=O)N(c2ccccc2)c2ccccc21`, the results for the IC50 in series [6] and in [7] were 4.8 µM and 7.67 µM, respectively. Molecule `O=C1Nc2ccc(Cl)cc2/C1=N/Nc1nc(-c2ccc3c(c2)OCO3)nc2ccccc12` came in with an IC50 in series [8] of 1000 to 2400 nM. Turning to `Cc1ccc2c(c1)/C(=N/NC(=O)N/N=C1\C(=O)Nc3ccc(C)cc31)C(=O)N2`, the IC50 in [9] worked out at 16 µM. As to `CS(=O)(=O)c1ccc(CC(=O)N/N=C2\C(=O)Nc3ccccc32)cc1`, in series [10], the IC50 was greater than 20000 nM. As usually defined, the GI50 is the concentration at which growth is held to half of that of the control. The low end stands for more potent growth inhibition, the high end for less potent growth inhibition. On to `O=C1/C(=N\NC(=S)Nc2ccccc2)c2cc([N+](=O)[O-])ccc2N1CN1CCCCC1`, for which the GI50 in series [11] was 661 nM; in series [12], 501 nM; in series [13], less than 10 nM.

For the molecule `O=c1[nH]cc(F)c(=O)[nH]1` [FLUOROURACIL], the GI50 was 6.76 µM in [14], 42.7 µM in [15] and 55 µM in series [16].

In the case of `Cc1cc2c(cc1Br)NC(=O)/C2=N\NC(=O)c1ccccc1O`, the IC50 in series [17] is 15.8 µM.

For the molecule `O=C(Cc1ccc(O)c(Cl)c1)N/N=C1\C(=O)Nc2c(Cl)ccc(Cl)c21`, the IC50 in series [10] worked out at 9 nM. For `O=C(Cc1ccc2c(c1)CCO2)N/N=C1\CNc2cc(C(=O)NCCN3CCOCC3)cc(Br)c21`, the IC50 in series [18] was found to be 0.7 nM.

On to `O=C(CSc1nc2ccccc2c(=O)n1-c1ccccc1)N/N=C1\C(=O)Nc2ccc(F)cc21`, for which the values for the GI50 in series [14], in [15] and in series [16] were 0.209 µM, 1.7 µM and 1.66 µM, respectively. For the molecule `Cc1nc(-c2ccccc2)ccc1C(=O)N/N=C1\C(=O)Nc2ccc(Br)cc21`, in series [19], the IC50 amounted to 25 µM. Turning to `CSc1ccc(CC(=O)N/N=C2\C(=O)Nc3ccccc32)cc1`, the half-maximal inhibitory concentration (IC50) in [10] is greater than 20000 nM. Regarding `O=C(N/N=C1\C(=O)Nc2ccc(Br)cc21)Nc1nc2ccccc2o1`, the results for the IC50 in [20], in series [21] and in series [22] were 17.9 µM, 13.7 µM and 15.9 µM, respectively. Regarding `COc1ccc(NC(=S)N/N=C2\C(=O)Nc3ccccc32)cc1`, the IC50 in [6] worked out at 3.3 µM. Regarding `O=C(Cc1ccc2c(c1)CCO2)N/N=C1\CNc2cc(C(=O)NCCCCN3CC[C@H](O)C3)cc(Br)c21`, the IC50 in series [18] stood at 0.7 nM. As to `O=C(Cc1ccc(O)c(F)c1)N/N=C1\C(=O)Nc2c(Cl)ccc(Cl)c21`, in series [10], the IC50 turned out to be 9 nM. Turning to `COc1ccc(-c2nc(N/N=C3\C(=O)Nc4ccccc43)c3ccccc3n2)cc1OC`, the half-inhibitory concentration (IC50) in [8] lay in the range of 1000 to 2400 nM.

For `CN1CCN(CC(=O)N/N=C2\C(=O)Nc3ccc4ccccc4c32)CC1`, the Activity in series [23] amounted to 100%.

In series [8], `O=C1Nc2ccc(F)cc2/C1=N/Nc1nc(-c2ccccc2)nc2ccccc12` gave a 50% inhibitory concentration (IC50) of 1000 to 2400 nM.

Molecule `Cc1[nH]c(/C=N/N=C2\C(=O)Nc3ccc(F)cc32)c(C)c1C(=O)NCCCCCCCC(=O)NO` showed an inhibition in series [24] of 98%. Consider `Nc1c(C(=O)N/N=C2\C(=O)Nc3ccc([N+](=O)[O-])cc32)cnn1C(=O)c1ccc(-c2nc3ccccc3s2)cc1`, for which 10 nM corresponded to half-maximal inhibition in series [25] (IC50). Take `O=C(Cc1ccc2c(c1)CCO2)N/N=C1\CNc2cc(C(=O)NCCCCN3CCC[C@H]3CO)cc(Br)c21`: in series [18], the IC50 was 0.5 nM.
